Assay type in all cases: cell-based
Assay [1] has as its target T1, Neuronal acetylcholine receptor subunit alpha-7 (Homo sapiens, UniProt P36544). Nature of the assay: Agonist activity at human alpha7 nAChR expressed in Xenopus laevis oocytes assessed as induction of channel current at 10 uM at -90 mV holding potential by two-electrode voltage clamp method relative to acetylcholine. On the technique in general: Two-electrode voltage clamp holds a large cell at a set potential and records current.

Assay [2] deals with T1, Neuronal acetylcholine receptor subunit alpha-7. Nature of the assay: Agonist activity at human alpha7 nAChR expressed in Xenopus laevis oocytes assessed as peak current amplitude at -90 mV holding potential by two-electrode voltage clamp method relative to acetylcholine.
Assay [3] shares this target. Nature of the assay: Agonist activity at human alpha7 nAChR expressed in Xenopus laevis oocytes assessed as induction of channel current at -90 mV holding potential by two-electrode voltage clamp method.
Assay [4] shares this target. Nature of the assay: Agonist activity at human alpha7 nAChR expressed in Xenopus laevis oocytes assessed as induction of channel current at 100 uM at -90 mV holding potential by two-electrode voltage clamp method relative to acetylcholine.
Assay [5] concerns the target T2, Neuronal acetylcholine receptor; alpha3/beta4 (Homo sapiens, UniProt P30926+P32297). Nature of the assay: Agonist activity at alpha3beta4 nAChR (unknown origin) expressed in Xenopus laevis oocytes assessed as induction of current at 100 uM at -90 mV holding potential by two-electrode voltage clamp method.
Assay [6] deals with T2, Neuronal acetylcholine receptor; alpha3/beta4. Nature of the assay: Antagonist activity at alpha3beta4 nAChR (unknown origin) expressed in Xenopus laevis oocytes assessed as inhibition of acetylcholine-induced channel current at -90 mV holding potential by two-electrode voltage clamp method.
The species entered for assay [7] is Homo sapiens. Nature of the assay: Selectivity index, ratio of IC50 for alpha3beta4 nAChR (unknown origin) expressed in Xenopus laevis oocytes to EC50 for human alpha7 nAChR expressed in Xenopus laevis oocytes.
The target in assay [8] is T1, Neuronal acetylcholine receptor subunit alpha-7. Nature of the assay: Agonist activity at human alpha7 nAChR expressed in Xenopus laevis oocytes assessed as increase in channel current at 10 uM at -90 mV holding potential in presence of 10 nM alpha7 nAChR antagonist, MLA measured after 10 mins by two-electrode voltage clamp method.
Assay [9] has as its target T3, 5-hydroxytryptamine receptor 3A (Homo sapiens, UniProt P46098).
T3 sequence (P46098 whole entry): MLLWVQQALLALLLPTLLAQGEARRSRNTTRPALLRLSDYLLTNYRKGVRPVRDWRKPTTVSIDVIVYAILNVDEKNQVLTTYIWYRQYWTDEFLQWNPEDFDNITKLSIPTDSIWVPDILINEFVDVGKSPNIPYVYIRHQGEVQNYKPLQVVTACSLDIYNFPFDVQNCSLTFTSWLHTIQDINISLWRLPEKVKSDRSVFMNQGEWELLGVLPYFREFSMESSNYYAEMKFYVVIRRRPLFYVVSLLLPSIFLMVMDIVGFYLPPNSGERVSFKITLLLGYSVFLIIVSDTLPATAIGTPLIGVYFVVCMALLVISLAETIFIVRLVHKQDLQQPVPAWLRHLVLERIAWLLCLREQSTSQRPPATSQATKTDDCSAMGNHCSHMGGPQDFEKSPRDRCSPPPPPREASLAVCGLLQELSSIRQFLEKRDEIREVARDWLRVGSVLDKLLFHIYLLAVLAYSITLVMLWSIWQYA
Nature of the assay: (§1) Antagonist activity at human 5-HT3A receptor expressed in Xenopus laevis oocytes at -90 mV holding potential in presence of serotonin by two-electrode voltage clamp method.

In assay [10] the target is T4, 5-hydroxytryptamine receptor 3A (Homo sapiens) (UniProt P46098).
T4 sequence (whole entry): T3 sequence (P46098 whole entry)
The assay is described as §1.

Assay [11] addresses T5, Neuronal acetylcholine receptor; alpha4/beta2 (Homo sapiens, UniProt P17787+P43681). Nature of the assay: Agonist activity at alpha4beta2 nAChR (unknown origin) expressed in Xenopus laevis oocytes at -90 mV holding potential by two-electrode voltage clamp method.
Assay [12] has as its target T1, Neuronal acetylcholine receptor subunit alpha-7. Nature of the assay: Agonist activity at human alpha7 nAChR expressed in Xenopus laevis oocytes assessed as channel current at 10 uM at -90 mV holding potential in presence of 10 nM alpha7 nAChR antagonist, MLA by two-electrode voltage clamp method.
Assay [13] has the same target. Nature of the assay: Induction of desensitization at human alpha7 nAChR expressed in Xenopus laevis oocytes assessed as inhibition of acetylcholine induced current treated with compound prior to 100 uM acetylcholine challenge at -90 mV holding potential by two-electrode voltage clamp method.
Assay [14] concerns the target T4, 5-hydroxytryptamine receptor 3A (Homo sapiens). Nature of the assay: Antagonist activity at human 5-HT3A receptor expressed in Xenopus laevis oocytes at 10 uM at -90 mV holding potential in presence of serotonin by two-electrode voltage clamp method.
For assay [15], the species on record is Homo sapiens. Nature of the assay: Selectivity index, ratio of EC50 for alpha4beta2 nAChR (unknown origin) expressed in Xenopus laevis oocytes to EC50 for human alpha7 nAChR expressed in Xenopus laevis oocytes.
Assay [16] concerns the target T4, 5-hydroxytryptamine receptor 3A (Homo sapiens). Nature of the assay: Agonist activity at human 5-HT3A receptor expressed in Xenopus laevis oocytes at 10 uM at -90 mV holding potential by two-electrode voltage clamp method.
Assay [17] deals with T2, Neuronal acetylcholine receptor; alpha3/beta4. Nature of the assay: Agonist activity at alpha3beta4 nAChR (unknown origin) expressed in Xenopus laevis oocytes assessed as channel current at 10 uM at -90 mV holding potential by two-electrode voltage clamp method.
In assay [18] the target is T5, Neuronal acetylcholine receptor; alpha4/beta2. Nature of the assay: Agonist activity at alpha4beta2 nAChR (unknown origin) expressed in Xenopus laevis oocytes assessed as induction of current at 10 uM at -90 mV holding potential by two-electrode voltage clamp method.
The target of assay [19] is T1, Neuronal acetylcholine receptor subunit alpha-7. Nature of the assay: Agonist activity at human alpha7 nAChR expressed in Xenopus laevis oocytes preincubated with 1 uM alpha7 type-2 PAM PNU-120596 at -90 mV holding potential by two-electrode voltage clamp method.

35 compounds from ChEMBL document CHEMBL4406831, “Discovery of fused heterocyclic carboxamide derivatives as novel α7-nAChR agonists: Synthesis, preliminary SAR and biological evaluation” (Eur J Med Chem, 2019) can be followed below.

Calls of active or inactive are those of the source. The calls are words filed in the database; no cut-off is given here.

T1 sequence (P36544 whole entry): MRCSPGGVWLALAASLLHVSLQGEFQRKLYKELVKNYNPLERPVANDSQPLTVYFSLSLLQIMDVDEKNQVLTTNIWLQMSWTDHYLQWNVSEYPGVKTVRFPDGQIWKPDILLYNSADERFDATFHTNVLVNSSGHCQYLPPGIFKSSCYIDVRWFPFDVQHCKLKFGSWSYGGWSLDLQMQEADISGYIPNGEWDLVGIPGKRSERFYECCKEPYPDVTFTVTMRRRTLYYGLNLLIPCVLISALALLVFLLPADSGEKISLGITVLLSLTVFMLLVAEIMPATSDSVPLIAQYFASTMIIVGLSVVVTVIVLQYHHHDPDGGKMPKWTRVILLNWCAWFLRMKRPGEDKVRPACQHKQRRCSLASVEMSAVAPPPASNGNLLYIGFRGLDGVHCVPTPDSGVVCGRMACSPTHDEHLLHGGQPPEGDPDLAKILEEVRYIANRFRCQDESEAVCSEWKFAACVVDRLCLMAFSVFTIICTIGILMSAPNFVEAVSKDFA
T2 sequence (P30926 whole entry): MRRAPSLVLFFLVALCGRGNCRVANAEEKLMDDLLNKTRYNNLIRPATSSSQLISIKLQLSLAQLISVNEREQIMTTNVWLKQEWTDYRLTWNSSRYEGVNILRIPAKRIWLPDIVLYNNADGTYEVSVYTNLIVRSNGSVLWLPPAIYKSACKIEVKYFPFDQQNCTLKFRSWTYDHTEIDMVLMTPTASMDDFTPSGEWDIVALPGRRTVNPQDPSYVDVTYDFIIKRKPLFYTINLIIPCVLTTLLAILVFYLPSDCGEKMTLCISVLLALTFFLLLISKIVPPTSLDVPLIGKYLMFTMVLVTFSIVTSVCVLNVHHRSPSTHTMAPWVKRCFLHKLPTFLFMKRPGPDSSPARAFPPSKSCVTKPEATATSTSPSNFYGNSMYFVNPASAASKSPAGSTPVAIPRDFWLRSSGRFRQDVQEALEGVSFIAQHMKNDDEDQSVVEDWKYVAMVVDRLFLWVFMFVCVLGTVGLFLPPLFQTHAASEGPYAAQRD
T2 sequence (P32297 whole entry): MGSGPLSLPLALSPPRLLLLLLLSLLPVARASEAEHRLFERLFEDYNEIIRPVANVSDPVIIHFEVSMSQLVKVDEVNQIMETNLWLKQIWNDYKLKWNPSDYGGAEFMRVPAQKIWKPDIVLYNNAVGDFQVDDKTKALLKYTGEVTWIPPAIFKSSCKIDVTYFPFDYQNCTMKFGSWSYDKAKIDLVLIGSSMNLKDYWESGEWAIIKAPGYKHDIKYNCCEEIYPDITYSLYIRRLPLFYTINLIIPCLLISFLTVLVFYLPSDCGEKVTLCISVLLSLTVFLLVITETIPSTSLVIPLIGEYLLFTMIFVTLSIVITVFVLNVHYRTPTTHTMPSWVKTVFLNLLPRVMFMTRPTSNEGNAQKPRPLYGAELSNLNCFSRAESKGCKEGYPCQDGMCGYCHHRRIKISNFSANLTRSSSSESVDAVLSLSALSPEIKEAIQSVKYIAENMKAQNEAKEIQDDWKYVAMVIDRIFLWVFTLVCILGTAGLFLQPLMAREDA
T5 sequence (P17787 whole entry): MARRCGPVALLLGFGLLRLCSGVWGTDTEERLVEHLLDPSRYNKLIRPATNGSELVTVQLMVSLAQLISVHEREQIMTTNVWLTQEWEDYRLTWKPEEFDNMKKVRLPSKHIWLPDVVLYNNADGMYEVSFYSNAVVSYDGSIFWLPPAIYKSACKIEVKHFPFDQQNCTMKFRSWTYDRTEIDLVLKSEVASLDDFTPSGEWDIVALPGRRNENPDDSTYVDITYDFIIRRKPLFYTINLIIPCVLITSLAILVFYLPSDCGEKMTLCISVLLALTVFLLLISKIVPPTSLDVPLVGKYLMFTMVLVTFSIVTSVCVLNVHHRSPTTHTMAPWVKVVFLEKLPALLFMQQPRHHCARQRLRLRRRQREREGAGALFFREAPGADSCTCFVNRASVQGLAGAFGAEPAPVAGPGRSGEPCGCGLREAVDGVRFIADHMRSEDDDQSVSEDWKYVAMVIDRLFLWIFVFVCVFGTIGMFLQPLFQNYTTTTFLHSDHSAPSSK
T5 sequence (P43681 whole entry): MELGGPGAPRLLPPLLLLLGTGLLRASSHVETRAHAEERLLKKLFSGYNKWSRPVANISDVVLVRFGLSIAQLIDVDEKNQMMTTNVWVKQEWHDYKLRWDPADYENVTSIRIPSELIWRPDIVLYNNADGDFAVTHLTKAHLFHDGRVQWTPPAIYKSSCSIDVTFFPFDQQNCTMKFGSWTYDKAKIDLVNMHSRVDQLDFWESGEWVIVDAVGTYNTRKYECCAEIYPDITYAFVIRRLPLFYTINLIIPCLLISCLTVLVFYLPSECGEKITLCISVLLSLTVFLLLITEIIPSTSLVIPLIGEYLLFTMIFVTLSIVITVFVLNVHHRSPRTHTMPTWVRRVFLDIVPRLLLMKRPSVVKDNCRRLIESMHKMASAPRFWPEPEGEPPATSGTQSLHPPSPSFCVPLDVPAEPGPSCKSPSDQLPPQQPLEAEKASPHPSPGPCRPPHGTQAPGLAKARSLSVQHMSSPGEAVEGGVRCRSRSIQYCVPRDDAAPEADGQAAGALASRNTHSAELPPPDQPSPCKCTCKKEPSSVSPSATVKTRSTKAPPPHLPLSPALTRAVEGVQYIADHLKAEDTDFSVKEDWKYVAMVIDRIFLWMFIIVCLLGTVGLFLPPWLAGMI

For `O=C(N[C@H]1CN2CCC1CC2)c1cc2ccc3cc(N4CCCCC4)ccc3n2c1`, the Activity in [1] was under 60%.
Broadly, the Emax is the greatest response seen or fitted, relative to the assay's reference. As usually defined, the EC50 is the concentration giving half of the maximal effect. With `Cc1ccc2c(ccc3cc(C(=O)N[C@H]4CN5CCC4CC5)cn32)c1`, the Emax in assay [2] was determined as 29.2%. Also, the Activity in assay [1] and in [4] was over 120% throughout. Also, in assay [3], the EC50 came to 1270 nM.
`Cc1ccccc1-c1ccc2c(ccc3cc(C(=O)N[C@H]4CN5CCC4CC5)cn32)c1`: the Emax in [2] was found to be 23.1%. Besides, the Activity in [1] is 60 to 120%; in assay [4], over 120%. The EC50 in assay [3] is 3200 nM.
Regarding `C=CCOc1ccc2c(ccc3cc(C(=O)N[C@H]4CN5CCC4CC5)cn32)c1`, the outcome in assay [4] was inactive.
`O=C(N[C@H]1CN2CCC1CC2)c1cc2ccc3cc(-c4cccnc4)ccc3n2c1`: the results for the Activity in assay [1] and in assay [4] were under 60% and 60 to 120%, respectively.
As to `C#CCOc1ccc2c(ccc3cc(C(=O)N[C@H]4CN5CCC4CC5)cn32)c1`, the Emax in [2] amounted to 34.5%. Moreover, the Activity in assay [1] was 60 to 120%. The EC50 in [3] was 7630 nM.
For `CCC(CC)Oc1ccc2c(ccc3cc(C(=O)N[C@H]4CN5CCC4CC5)cn32)c1`, the result in assay [4] was inactive.
As for `O=C(N[C@H]1CN2CCC1CC2)c1cc2ccc3cc(Br)ccc3n2c1`, in [1], the Activity was under 60%.
The same measure, in the same setting: in the case of `O=C(N[C@H]1CN2CCC1CC2)c1cc2ccc3cc(N4CCCC4)ccc3n2c1` it was under 60%.
Consider `O=C(N[C@H]1CN2CCC1CC2)c1cc2ccc3cc(O)ccc3n2c1`, for which, in [2], the Emax came out at 47.3%. In addition, in [3], the EC50 is 2000 nM. Besides, the Activity in assay [4] was over 120%.
For `CC(C)COc1ccc2c(ccc3cc(C(=O)N[C@H]4CN5CCC4CC5)cn32)c1`, in assay [1], the result was inactive.
Still for that read-out and setting: the result for `COc1ccc2c(ccc3cc(C(=O)N[C@H]4CN5CCC4CC5)cn32)c1` reads under 60%.
As to `CC(C)Oc1ccc2c(ccc3cc(C(=O)N[C@H]4CN5CCC4CC5)cn32)c1`, the result in [4] was inactive.
`O=C(N[C@H]1CN2CCC1CC2)c1cc2cccc(Cl)c2s1` [ENCENICLINE]: the maximum response (Emax) in assay [2] is 27.6%. Further, the EC50 in assay [3] was found to be 250 nM.
On to `O=C(N[C@H]1CN2CCC1CC2)c1cc2ccc3cc(Cl)ccc3n2c1`, for which, in assay [1], the Activity was under 60%.
With `O=C(N[C@H]1CN2CCC1CC2)c1cc2ccc3cc(OCc4ccc(F)cc4)ccc3n2c1`, the Activity in assay [4] is under 60%.
The same measure, in the same setting: the result for `Cc1cc(-c2ccc3c(ccc4cc(C(=O)N[C@H]5CN6CCC5CC6)cn43)c2)ccn1` reads under 60%.
Take `CC(C)(C)c1ccc(-c2ccc3c(ccc4cc(C(=O)N[C@H]5CN6CCC5CC6)cn43)c2)cc1`: the Activity in assay [1] and in assay [4] was 60 to 120% throughout.
As to `O=C(N[C@H]1CN2CCC1CC2)c1cc2ccc3cc(-c4ccc(F)cc4)ccc3n2c1`, the result in assay [4] was inactive.
Same read-out and setting: the result for `O=C(N[C@H]1CN2CCC1CC2)c1cc2ccc3cc(OCc4ccccc4)ccc3n2c1` reads under 60%.
The same measure, in the same setting: the result for `O=C(N[C@H]1CN2CCC1CC2)c1cc2ccc3cc(OCc4cccnc4)ccc3n2c1` reads 60 to 120%; that for `O=C(N[C@H]1CN2CCC1CC2)c1cc2n(c1)CCCC2`, under 60%.
Regarding `CC(=O)OCC[N+](C)(C)C`, in assay [5], the result was Active.
The IC50 is the concentration at which inhibition is half-maximal. For the compound `O=C(N[C@H]1CN2CCC1CC2)c1cc2ccc3ccccc3n2c1`, in [2], the Emax stood at 72.4%. For the same compound, the Activity was 60 to 120% in [1] and “Dose-dependent effect” in [19]. In addition, the 50% inhibitory concentration (IC50) was found to be 10100 nM in assay [6], 710 nM in assay [9] and 21.2 nM in [13]. Further, the Ratio IC50/EC50 in the assay filed under Homo sapiens [7] is 5. The result in [8] and in assay [18] was Active. The inhibition result in assay [10] and in [13] was “Dose-dependent effect” in each case. In addition, the concentration giving a half-maximal response (EC50) in assay [3] is 1880 nM; in [11], 6140 nM; in assay [19] it was 120 nM. The result in [12], in [16] and in [17] was inactive. Further, the inhibition entry in [14] was “Active”. Moreover, in the assay listed under Homo sapiens [15], the Ratio EC50 came out at 3.
As to `O=C(N[C@H]1CN2CCC1CC2)c1cc2ccc3cc(C(F)(F)F)ccc3n2c1`, the Activity in assay [1] is under 60%.
Regarding `CCCOc1ccc2c(ccc3cc(C(=O)N[C@H]4CN5CCC4CC5)cn32)c1`, the Activity in assay [1] and in assay [4] was under 60% throughout.
Regarding `O=C(N[C@H]1CN2CCC1CC2)c1cc2ccc3cc(-c4ccccc4)ccc3n2c1`, the Activity in assay [1] is under 60%; in assay [4], 60 to 120%.
As to `O=C(N[C@H]1CN2CCC1CC2)c1cc2ccc3cc(F)ccc3n2c1`, the Emax in assay [2] stood at 58.6%. For the same compound, in assay [1], the Activity lay within 60 to 120%. Moreover, the EC50 in assay [3] amounted to 8270 nM.
Regarding `O=C(N[C@H]1CN2CCC1CC2)c1cc2ccc3cc(C4CC4)ccc3n2c1`, the Activity in assay [1] is under 60%.
With `O=C(N[C@H]1CN2CCC1CC2)c1cc2ccc3cc(-c4ccsc4)ccc3n2c1`, in [4], the Activity was under 60%.
On the same count and under the same terms, the result for `O=C(N[C@H]1CN2CCC1CC2)c1cc2n(c1)CCC2` reads under 60%; that for `O=C(N[C@H]1CN2CCC1CC2)c1cc2ccc3cc(OC4CCC4)ccc3n2c1`, under 60%; that for `CCCC(C)Oc1ccc2c(ccc3cc(C(=O)N[C@H]4CN5CCC4CC5)cn32)c1` (stereo partly specified), “inactive”.
With `O=C(N[C@H]1CN2CCC1CC2)c1cc2ccc3cc(OC(F)F)ccc3n2c1`, the Activity in assay [1] was under 60%; in assay [4], 60 to 120%.
For `O=C(N[C@H]1CN2CCC1CC2)c1cc2ccc3cc(-c4ccncc4)ccc3n2c1`, the Activity in [4] was under 60%.
